Experiments:
[1] = test system: CT26 colorectal cancer cells; test: qRT-PCR, combination with cGAMP, CT26 cells; type: cell-based, Mouse; details: 24 hours, 5 μM Compound 1 or 10 μM Compound 2, 10 mg/mL cGAMP
Method: (§1) CT26 cells were treated for 24 hours with DMSO or VPS34 inhibitors (5 μM Compound 1 or 10 μM Compound 2) in combination with 10 mg/mL STING agonist cGAMP (green bars). Cells were washed with PBS and RNA was isolated using the PureLink RNA kit (#12183018A, Thermo Fisher Scientific) according to the manufacturer's protocol. Genomic DNA was removed using DNA-binding columns (RNeasy plus kit, #74134, Qiagen) and/or DNase treatment (#12185010, Thermo Fisher Scientific). RNA was quantified using NanoDrop (Thermo Fisher Scientific) and 50 ng/μL RNA was used for cDNA synthesis with SuperScript IV VILO Master Mix (#11756050, Thermo Fisher Scientific). Quantitative RT-PCR (qRT-PCR) was run with diluted cDNA (1:25 or 1:12.5), PowerUp SYBR Green Master Mix (#A25741, Thermo Fisher Scientific), and 200 nM primers (see below) on a CFX Connect RT-PCR system (BioRad). Data was analyzed using the ΔΔCT method. Results are mean±SEM of three independent experiments.

[2] = test system: CT26 colorectal cancer cells; test: Cytokine secretion assay, combination with cGAMP, CT26 cells; type: cell-based, mouse; details: 24 hours, 5 μM Compound 1 or 10 μM Compound 2, 10 mg/mL cGAMP
Method: as §1
(§2) Cell culture medium was centrifuged at 1600 rpm for 10 min at 4° C. and obtained supernatant stored at −80° C. Cytokine levels were quantified using following Meso Scale Discovery (MSD) assays: mouse U-PLEX RANTES/CCL5 (#K152A2K) and U-PLEX IP-10/CXCL10 (#K152UFK). Assays were run on the SECTOR Quickplex Imager and analyzed using Discovery Workbench version 4.0 (MSD).

[3] = test system: 4T1 breast cancer cells; test: qRT-PCR, combination with cGAMP, 4T1 cells; type: cell-based, Mouse; details: 24 hours, 5 μM Compound 1 or 10 μM Compound 2, 10 mg/ml cGAMP
Method: as §1, with “4T1” for “CT26”, “mg/ml” for “mg/mL”

[4] = test system: 4T1 breast cancer cells; test: Cytokine secretion assay, combination with cGAMP, 4T1 cells; type: cell-based, mouse; details: 24 hours, 5 μM Compound 1 or 10 μM Compound 2, 10 mg/ml cGAMP
Method: as §1, with “4T1” for “CT26”, “mg/ml” for “mg/mL”
as §2

[5] = test system: YUMM 1.7 melanoma cells; test: qRT-PCR, combination with cGAMP, YUMM1.7 cells; type: cell-based, Mouse; details: 24 hours, 5 μM Compound 1 or 10 μM Compound 2, 10 mg/ml cGAMP
Method: as §1, with “YUMM1.7” for “CT26”, “mg/ml” for “mg/mL”

[6] = test system: YUMM 1.7 melanoma cells; test: Cytokine secretion assay, combination with cGAMP, YUMM1.7 cells; type: cell-based, mouse; details: 24 hours, 5 μM Compound 1 or 10 μM Compound 2, 10 mg/ml cGAMP
Method: as §1, with “YUMM1.7” for “CT26”, “mg/ml” for “mg/mL”
as §2

Nc1nc2c(ncn2[C@@H]2O[C@@H]3COP(=O)(O)O[C@H]4[C@@H](O)[C@H](n5cnc6c(N)ncnc65)O[C@@H]4COP(=O)(O)O[C@@H]2[C@@H]3O)c(=O)[nH]1 [cGAMP, reference compound]
increased: CCL5 mRNA expression [1] | CXCL10 mRNA expression [1] | CCL5 protein secretion [2] | CXCL10 protein secretion [2] | CCL5 mRNA expression [3] | CXCL10 mRNA expression [3] | CCL5 protein secretion [4] | CXCL10 protein secretion [4] | CCL5 mRNA expression [5] | CXCL10 mRNA expression [5] | CCL5 protein secretion [6] | CXCL10 protein secretion [6]

Source: patent US20250127790A1, “COMBINATION THERAPY USING VPS34 INHIBITORS” (Deciphera Pharmaceuticals, LLC, priority 2021, published 2025)
